Test results taken from patent US10351546B2, “Pyridin-3-yl acetic acid derivatives as inhibitors of human immunodeficiency virus replication” (priority 2015, dated 2019).
Read-outs that look alike come from different tables or passages of the source.

Test system: NL-RLuc virus
Assay: Inhibition of HIV replication (NL-RLuc luciferase reporter virus in MT-2 cells)
Format: cell-based
Details: Human immunodeficiency virus 1, MT2, 120 h
Procedure, shortened: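 The read-out is Renilla luciferase expressed by replication-competent NL-RLuc (nef partly replaced), measured 5 days after infection of MT-2 cells grown with compound dilutions in 10% FBS RPMI. Median effect equation gives EC50 from ≥2 runs; A ≤100 nM, B 100 nM–1 uM, C >1 uM.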

`Cc1cccc(Cl)c1CN1CCc2cc(-c3c(CN4CCC4)nc(C)c([C@H](OC(C)(C)C)C(=O)O)c3N3CCC(C)(C)CC3)ccc2C1` [Example 175, (S)-2-(6-(Azetidin-1-ylmethyl)-5-(2-(2-chloro-6-methylbenzyl)-1,2,3,4-tetrahydroisoquinolin-6-yl)-4-(4,4-dimethylpiperidin-1-yl)-2-methylpyridin-3-yl)-2-(tert-butoxy)acetic acid] was tested, and the EC50 (read-out: Activity) was < 0.1 µM.
`Cc1cccc(Cl)c1CN1CCc2cc(-c3c(CN4CCCC4)nc(C)c([C@H](OC(C)(C)C)C(=O)O)c3N3CCC(C)(C)CC3)ccc2C1` [Example 176, (S)-2-(tert-Butoxy)-2-(5-(2-(2-chloro-6-methylbenzyl)-1,2,3,4-tetrahydroisoquinolin-6-yl)-4-(4,4-dimethylpiperidin-1-yl)-2-methyl-6-(pyrrolidin-1-ylmethyl)pyridin-3-yl)acetic acid] was tested, and the EC50 (read-out: Activity) was < 0.1 µM.
With `Cc1cccc(Cl)c1CN1CCc2cc(-c3c(CN4CCCCC4)nc(C)c([C@H](OC(C)(C)C)C(=O)O)c3N3CCC(C)(C)CC3)ccc2C1` [Example 177, (S)-2-(tert-Butoxy)-2-(5-(2-(2-chloro-6-methylbenzyl)-1,2,3,4-tetrahydroisoquinolin-6-yl)-4-(4,4-dimethylpiperidin-1-yl)-2-methyl-6-(piperidin-1-ylmethyl)pyridin-3-yl)acetic acid] the EC50 (read-out: Activity) was < 0.1 µM.
With `Cc1cccc(Cl)c1CN1CCc2cc(-c3c(CN4CCC5(CC4)CC5)nc(C)c([C@H](OC(C)(C)C)C(=O)O)c3N3CCC(C)(C)CC3)ccc2C1` [Example 178, (S)-2-(6-((6-Azaspiro[2.5]octan-6-yl)methyl)-5-(2-(2-chloro-6-methylbenzyl)-1,2,3,4-tetrahydroisoquinolin-6-yl)-4-(4,4-dimethylpiperidin-1-yl)-2-methylpyridin-3-yl)-2-(tert-butoxy)acetic acid] the EC50 (read-out: Activity) was < 0.1 µM.
In the case of `Cc1cccc(Cl)c1CN1CCc2cc(-c3c(CN4CCC(C)(C)CC4)nc(C)c([C@H](OC(C)(C)C)C(=O)O)c3N3CCC(C)(C)CC3)ccc2C1` [Example 179, (S)-2-(tert-Butoxy)-2-(5-(2-(2-chloro-6-methylbenzyl)-1,2,3,4-tetrahydroisoquinolin-6-yl)-4-(4,4-dimethylpiperidin-1-yl)-6-((4,4-dimethylpiperidin-1-yl)methyl)-2-methylpyridin-3-yl)acetic acid], the EC50 (read-out: Activity) is reported as < 0.1 µM and the EC50 (read-out: EC50 μM) is reported as 0.005 µM.
`Cc1cccc(Cl)c1CN1CCc2cc(-c3c(CN4CCC5(CCC5)CC4)nc(C)c([C@H](OC(C)(C)C)C(=O)O)c3N3CCC(C)(C)CC3)ccc2C1` [Example 180, (S)-2-(6-((7-Azaspiro[3.5]nonan-7-yl)methyl)-5-(2-(2-chloro-6-methylbenzyl)-1,2,3,4-tetrahydroisoquinolin-6-yl)-4-(4,4-dimethylpiperidin-1-yl)-2-methylpyridin-3-yl)-2-(tert-butoxy)acetic acid] was tested, and the EC50 (read-out: Activity) was < 0.1 µM.
With `CC1(C)CCN(c2c([C@H](OC(C)(C)C)C(=O)O)cnc(CO)c2-c2ccc(OCCc3ccc(F)cc3)cc2)CC1` [Example 181, (S)-2-(tert-butoxy)-2-(4-(4,4-dimethylpiperidin-1-yl)-5-(4-(4-fluorophenethoxy)phenyl)-6-(hydroxymethyl)pyridin-3-yl)acetic acid] the EC50 (read-out: Activity) was < 0.1 µM.
`Cc1ncc([C@H](OC(C)(C)C)C(=O)O)c(N2CCC(C)(C)CC2)c1-c1ccc(OCCc2ccc(F)cc2)cc1` [Example 182, (S)-2-(tert-Butoxy)-2-(4-(4,4-dimethylpiperidin-1-yl)-5-(4-(4-fluorophenethoxy)phenyl)-6-methylpyridin-3-yl)acetic acid] was tested, and the EC50 (read-out: Activity) was < 0.1 µM.
For `COCc1ncc([C@H](OC(C)(C)C)C(=O)O)c(N2CCC(C)(C)CC2)c1-c1ccc(OCCc2ccc(F)cc2)cc1` [Example 183, (S)-2-(tert-Butoxy)-2-(4-(4,4-dimethylpiperidin-1-yl)-5-(4-(4-fluorophenethoxy)phenyl)-6-(methoxymethyl)pyridin-3-yl)acetic acid], the EC50 (read-out: Activity) was < 0.1 µM.
In the case of `CC1(C)CCN(c2c([C@H](OC(C)(C)C)C(=O)O)cnc(CCl)c2-c2ccc(OCCc3ccc(F)cc3)cc2)CC1` [Example 184, (S)-2-(tert-Butoxy)-2-(6-(chloromethyl)-4-(4,4-dimethylpiperidin-1-yl)-5-(4-(4-fluorophenethoxy)phenyl)pyridin-3-yl)acetic acid], the EC50 (read-out: Activity) is reported as < 0.1 µM and the EC50 (read-out: EC50 μM) is reported as 0.04 µM.
